According to US20250353855A1, “HETEROCYCLIC AND HETEROARYL COMPOUNDS FOR TREATING HUNTINGTON'S DISEASE” (PTC THERAPEUTICS, INC., priority 2022, published 2025):

System: Endogenous Huntingtin Protein
Assay: Endogenous Huntingtin Protein Assay (ELISA-based MSD electrochemiluminescence)
Format: cell-based
Details: MSD plates coated with MW1 (expanded polyglutamine) or MAB2166 capture antibody; lysates; read-out: IC50
Procedure, shortened: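 Electrochemiluminescence sandwich ELISA for endogenous huntingtin: capture with MW1 (expanded polyglutamine) or MAB2166 antibody at 1 μg/mL, samples incubated overnight at 4° C. Detection with rabbit monoclonal #5656S then goat anti-rabbit SULFO-TAG antibody (each 0.25 μg/mL, 1 h room temperature), read on MSD imager.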

IC50 [nM] | Structure (SMILES)
500 to 1000 | CO/N=C1/CCc2cc(-c3cc4c(nn3)N([C@H]3CCNC5(CC5)C3)CC4)c(O)cc21 [Cpd 60, (3Z)-6-{7-[(7S)-4-azaspiro[2.5]octan-7-yl]-6,7-dihydro-5H-pyrrolo[2,3-c]pyridazin-3-yl}-3-(methoxyimino)-2,3-dihydro-1H-inden-5-ol]
< 100 | Cn1cc2cc(-c3cc4c(nn3)N([C@H]3CC(C)(C)NC(C)(C)[C@H]3F)CC4)c(O)c(F)c2n1 [Cpd 101, 7-fluoro-5-{7-[(3S,4S)-3-fluoro-2,2,6,6-tetramethylpiperidin-4-yl]-6,7-dihydro-5H-pyrrolo[2,3-c]pyridazin-3-yl}-2-methyl-2H-indazol-6-ol]
< 100 | Cc1cnc2cc(-c3cc4c(nn3)N([C@@H]3C[C@H]5CC[C@H](N5)[C@@H]3F)CC4)c(O)cc2n1 (single isomer, unassigned) [Cpd 91, 7-{7-[(1S,2S,3R,5R)-2-fluoro-8-azabicyclo[3.2.1]octan-3-yl]-6,7-dihydro-5H-pyrrolo[2,3-c]pyridazin-3-yl}-3-methylquinoxalin-6-ol or 7-{7-[(1R,2R,3S,5S)-2-fluoro-8-azabicyclo[3.2.1]octan-3-yl]-6,7-dihydro-5H-pyrrolo[2,3-c]pyridazin-3-yl}-3-methylquinoxalin-6-ol]
< 100 | COc1nc2cc(O)c(-c3cc4ccn([C@H]5CC(C)(C)NC(C)(C)[C@H]5F)c4nn3)cc2s1 [Cpd 96, 6-{7-[(3S,4S)-3-fluoro-2,2,6,6-tetramethylpiperidin-4-yl]-7H-pyrrolo[2,3-c]pyridazin-3-yl}-2-methoxy-1,3-benzothiazol-5-ol]
100 to 500 | CC1(C)C[C@H](n2ccc3cc(-c4cc5nc(C(F)(F)F)oc5cc4O)nnc32)[C@H](F)C(C)(C)N1 [Cpd 24, 5-{7-[(3S,4S)-3-fluoro-2,2,6,6-tetramethylpiperidin-4-yl]-7H-pyrrolo[2,3-c]pyridazin-3-yl}-2-(trifluoromethyl)-1,3-benzoxazol-6-ol]

Continued, molecule first:

Structure (SMILES) | IC50 [nM]
CC1(C)C[C@H](n2ccc3cc(-c4cc5c(Cl)ccnc5cc4O)nnc32)[C@H](F)C(C)(C)N1 [Cpd 21, 4-chloro-6-{7-[(3S,4S)-3-fluoro-2,2,6,6-tetramethylpiperidin-4-yl]-7H-pyrrolo[2,3-c]pyridazin-3-yl}quinolin-7-ol] | 100 to 500
Cc1nc2cc(-c3cc4ccn([C@H]5CC(C)(C)NC(C)(C)[C@H]5F)c4nn3)c(O)cc2s1 [Cpd 8, 5-{7-[(3S,4S)-3-fluoro-2,2,6,6-tetramethylpiperidin-4-yl]-7H-pyrrolo[2,3-c]pyridazin-3-yl}-2-methyl-1,3-benzothiazol-6-ol] | < 100
CC1(C)C[C@H](N2CCc3cc(-c4cc5nn[nH]c5cc4O)nnc32)[C@H](F)C(C)(C)N1 [Cpd 47, 5-{7-[(3S,4S)-3-fluoro-2,2,6,6-tetramethylpiperidin-4-yl]-6,7-dihydro-5H-pyrrolo[2,3-c]pyridazin-3-yl}-1H-benzotriazol-6-ol] | < 100
Cn1cc2cc(O)c(-c3cc4ccn([C@H]5CC(C)(C)NC(C)(C)[C@H]5F)c4nn3)cc2n1 [Cpd 38, 6-{7-[(3S,4S)-3-fluoro-2,2,6,6-tetramethylpiperidin-4-yl]-7H-pyrrolo[2,3-c]pyridazin-3-yl}-2-methyl-2H-indazol-5-ol] | < 100
Cc1cnc2cc(O)c(-c3cc4c(nn3)N([C@H]3CC(C)(C)NC(C)(C)[C@H]3F)CC4)cc2n1 [Cpd 55, 7-{7-[(3S,4S)-3-fluoro-2,2,6,6-tetramethylpiperidin-4-yl]-6,7-dihydro-5H-pyrrolo[2,3-c]pyridazin-3-yl}-2-methylquinoxalin-6-ol] | < 100
Cc1ccc2cc(O)c(-c3cc4ccn([C@H]5CC(C)(C)NC(C)(C)[C@H]5F)c4nn3)cc2n1 [Cpd 31, 7-{7-[(3S,4S)-3-fluoro-2,2,6,6-tetramethylpiperidin-4-yl]-7H-pyrrolo[2,3-c]pyridazin-3-yl}-2-methylquinolin-6-ol] | < 100
Cc1nc2cc(O)c(-c3cc4c(nn3)N([C@@H]3CCNC(C)(C)[C@@H]3F)CC4)cc2s1 (single isomer, unassigned) [Cpd 63, 6-{7-[(3R,4R)-3-fluoro-2,2-dimethylpiperidin-4-yl]-6,7-dihydro-5H-pyrrolo[2,3-c]pyridazin-3-yl}-2-methyl-1,3-benzothiazol-5-ol or 6-{7-[(3S,4S)-3-fluoro-2,2-dimethylpiperidin-4-yl]-6,7-dihydro-5H-pyrrolo[2,3-c]pyridazin-3-yl}-2-methyl-1,3-benzothiazol-5-ol] | < 100
